# Results from patent US6706716B2, “Compounds specific for the human α1d adrenergic receptor and uses thereof” (Synaptic Pharmaceutical Corporation, priority 1998, dated 2004).
# Entries after “also recorded” stand apart in the source; their conditions may differ.
# Key:
# α1B adrenoceptor = molecular target: T1, α1B adrenoceptor (Rattus norvegicus, UniProt P15823); assay: Isolated tissue functional assay, spleen (phenylephrine induced contraction)
# T1 construct: from tissue; host or cells: rat splenic preparations
# T1 sequence (P15823 1-515): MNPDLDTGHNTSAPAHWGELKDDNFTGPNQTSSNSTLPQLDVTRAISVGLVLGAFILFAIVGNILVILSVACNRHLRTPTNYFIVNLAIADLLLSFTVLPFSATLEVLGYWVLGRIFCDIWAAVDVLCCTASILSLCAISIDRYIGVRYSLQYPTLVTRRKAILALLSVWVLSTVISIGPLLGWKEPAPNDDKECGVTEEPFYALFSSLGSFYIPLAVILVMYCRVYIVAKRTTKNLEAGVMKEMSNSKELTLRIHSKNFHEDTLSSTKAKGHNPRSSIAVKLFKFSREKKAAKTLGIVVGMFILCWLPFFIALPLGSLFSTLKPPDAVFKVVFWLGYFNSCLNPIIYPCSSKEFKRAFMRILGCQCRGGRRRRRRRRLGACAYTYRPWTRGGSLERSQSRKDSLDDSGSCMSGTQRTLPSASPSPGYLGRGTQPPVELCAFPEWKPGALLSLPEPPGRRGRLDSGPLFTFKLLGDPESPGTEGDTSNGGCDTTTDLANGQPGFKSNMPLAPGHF
# Protocol: (§1) The functional in vitro activity of Compound 7 was characterized in several pharmacologically defined α1 adrenoceptor subtype isolated tissue assays (Aboud et al., 1993). (Rat epididymal vas deferens was used to determine α1A functional responses, spleen was used for α1B responses, and thoracic aorta was used for α1D responses.) Experiments were carried out according to the method of Deng et al., 1996, with minor buffer and tissue setup tension modifications. Krebs additionally contained 0.1 μM desipramine and 10 μM corticosterone to block neuronal and extra neuronal uptake, respectively, and 0.3 μM idazoxan to eliminate α2 mediated responses. Aorta and vas deferens strips were set at 0.5 g resting tension, and the splenic preparations were tensioned to 1 g. All preparations were equilibrated for 1 hr before the addition of drugs.
# (§2) Additionally, its antagonist potency was determined by its ability to antagonize phenylephrine (PE) induced contraction in each of these preparations. The degree of shift of the PE agonist dose response-curve in the presence of Compound 7 was measured and pKB values were calculated (mean±s.e.m.).
# [1] = molecular target: T2, human 5-HT1Dβ (5-HT1B) receptor (Homo sapiens, UniProt P28222); assay: Competition binding ([3H]serotonin) at cloned human 5-HT1Dβ (5-HT1B) receptor; settings: read-out: binding affinity (pKi) 5-HT1Dβ (5-HT1B) (converted)
# T2 construct: expressed in transfected cells; host or cells: LM(tk-) clonal cell line Ltk-11 (ATCC CRL 10422)
# T2 sequence (P28222 whole entry): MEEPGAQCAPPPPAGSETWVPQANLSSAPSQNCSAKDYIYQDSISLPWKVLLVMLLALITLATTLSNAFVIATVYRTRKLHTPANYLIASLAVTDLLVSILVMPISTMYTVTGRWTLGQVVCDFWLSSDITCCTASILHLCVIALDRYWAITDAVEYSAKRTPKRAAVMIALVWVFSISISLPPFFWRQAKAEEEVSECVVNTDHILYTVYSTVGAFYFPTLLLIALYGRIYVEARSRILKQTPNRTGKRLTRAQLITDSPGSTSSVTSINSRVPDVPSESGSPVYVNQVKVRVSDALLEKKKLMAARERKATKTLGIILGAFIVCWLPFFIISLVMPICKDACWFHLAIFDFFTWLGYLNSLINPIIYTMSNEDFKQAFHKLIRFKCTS
# Protocol: (§3) 5-HT1Dα (5-HT1D) and 5-HT1Dβ (5-HT1B) receptors: The cell lysates of the LM(tk-) clonal cell line stably transfected with the genes encoding each of these 5-HT receptor subtypes were prepared as described above. The cell line for the 5-HT1Dα (5-HT1D) receptor, designated as Ltk-8-30-84, was deposited on Apr. 17, 1990, and accorded ATCC Accession No. CRL 10421. The cell line for the 5-HT1Dβ (5-HT1B) receptor, designated as Ltk-11, was deposited on Apr. 17, 1990, and accorded ATCC Accession No. CRL 10422. These preparations were suspended in 50 mM Tris-HCl buffer (pH 7.4 at 37° C.) containing 10 mM MgCl2, 0.2 mM EDTA, 10 μM pargyline, and 0.1% ascorbate. […] Nonspecific binding was determined in the presence of 10 μM serotonin. The bound radioligand was separated by filtration through GF/B filters using a cell harvester.
# [2] = molecular target: T3, human 5-HT1Dα (5-HT1D) receptor (Homo sapiens, UniProt P28221); assay: Competition binding ([3H]serotonin) at cloned human 5-HT1Dα (5-HT1D) receptor; settings: read-out: binding affinity (pKi) 5-HT1Dα (5-HT1D) (converted)
# T3 construct: expressed in transfected cells; host or cells: LM(tk-) clonal cell line Ltk-8-30-84 (ATCC CRL 10421)
# T3 sequence (P28221 whole entry): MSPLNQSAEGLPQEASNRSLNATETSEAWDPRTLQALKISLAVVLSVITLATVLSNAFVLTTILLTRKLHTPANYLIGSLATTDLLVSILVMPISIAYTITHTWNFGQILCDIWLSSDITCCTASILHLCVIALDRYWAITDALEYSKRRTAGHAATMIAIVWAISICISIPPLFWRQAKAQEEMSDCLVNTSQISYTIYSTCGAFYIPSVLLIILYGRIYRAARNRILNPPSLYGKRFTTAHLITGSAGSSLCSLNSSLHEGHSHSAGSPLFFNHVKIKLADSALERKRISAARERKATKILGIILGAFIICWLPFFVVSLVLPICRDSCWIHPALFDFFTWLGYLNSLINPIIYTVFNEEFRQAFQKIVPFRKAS
# Protocol: as §3
# [3] = system: urethane-anesthetized rats; assay: Blood pressure in urethane-anesthetized, normotensive rats; format: in vivo, rat
# Protocol: Rats were anesthetized with urethane and PE50 cannulae were placed in the femoral artery and vein for blood pressure monitoring and drug administration, respectively. After stabilization, rats were administered 200 μl saline vehicle or increasing doses of BMY 7378 or Compound 7 at 10 minutes intervals until the reduction in blood pressure reached a plateau. The 5-HT1A-selective antagonist WAY 100635 (1 mg/kg) was then administered and blood pressure monitored for an additional 10 minutes.
# α1A adrenoceptor = molecular target: T4, α1A adrenoceptor (Rattus norvegicus, UniProt P43140); assay: Isolated tissue functional assay, epididymal vas deferens (phenylephrine induced contraction)
# T4 construct: from tissue; host or cells: rat epididymal vas deferens
# T4 sequence (P43140 1-466): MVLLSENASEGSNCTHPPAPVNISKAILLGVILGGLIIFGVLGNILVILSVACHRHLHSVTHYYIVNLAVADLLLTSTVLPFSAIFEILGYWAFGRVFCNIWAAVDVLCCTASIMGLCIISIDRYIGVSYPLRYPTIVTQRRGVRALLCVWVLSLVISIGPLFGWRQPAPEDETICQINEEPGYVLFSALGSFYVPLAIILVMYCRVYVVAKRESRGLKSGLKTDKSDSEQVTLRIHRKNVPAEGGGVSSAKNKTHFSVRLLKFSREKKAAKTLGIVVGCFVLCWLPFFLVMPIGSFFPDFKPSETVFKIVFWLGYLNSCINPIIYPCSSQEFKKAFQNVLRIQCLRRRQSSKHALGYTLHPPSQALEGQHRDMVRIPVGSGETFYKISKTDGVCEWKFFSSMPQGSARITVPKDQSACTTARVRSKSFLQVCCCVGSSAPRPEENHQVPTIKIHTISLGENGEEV
# Protocol: as §1, §2
compound,measurement,setting,value
"O=C1CC2(CCCC2)CC(=O)N1CCN1CCN(c2cc(F)c(F)cc2F)CC1 [Compound 7, 8-{2-[4-(2,4,5-Trifluorophenyl)piperazin-1-yl]ethyl}-8-azaspiro[4.5]decane-7,9-dione]",agonist activity,"α1B adrenoceptor; concentrations up to 10 μM, rat spleen (α1B model)",failed to produce agonist activity
same,Kb,"α1B adrenoceptor; rat spleen (α1B), mean±s.e.m., read-out: pKB (antagonism of phenylephrine induced contraction) (converted)",0.2 µM
same,fold less effective than in the aorta,α1B adrenoceptor; spleen versus aorta,approximately 60 fold
same,Ki,[1],5.01 µM
same,Ki,[2],0.794 µM
same,reversal of the blood pressure effect by WAY 100635,[3]; 5-HT1A-selective antagonist WAY 100635 1 mg/kg given after plateau,not reversed
same,"effect on systolic, diastolic and mean blood pressure","[3]; urethane-anesthetized rats, increasing i.v. doses at 10 min intervals","reduces blood pressure in anesthetized rat, although to a lesser extent than BMY 7378; also recorded: only a minor reduction in blood pressure"
same,agonist activity,"α1A adrenoceptor; concentrations up to 10 μM, rat vas deferens (α1A model)",failed to produce agonist activity
same,Kb,"α1A adrenoceptor; rat epididymal vas deferens (α1A), mean±s.e.m., read-out: pKB (antagonism of phenylephrine induced contraction) (converted)",6.31 µM
same,fold less potent than in the aorta,α1A adrenoceptor; vas deferens versus aorta,approximately 2000 fold
